Source: ChEMBL document CHEMBL1154641 (Bioorg Med Chem Lett, 2009)
pKi: −log10 of the molar value.

Each compound was assayed against T1, Carbonic anhydrase 2 (Mycobacterium tuberculosis, UniProt P9WPJ9).
T1 sequence (P9WPJ9 whole entry): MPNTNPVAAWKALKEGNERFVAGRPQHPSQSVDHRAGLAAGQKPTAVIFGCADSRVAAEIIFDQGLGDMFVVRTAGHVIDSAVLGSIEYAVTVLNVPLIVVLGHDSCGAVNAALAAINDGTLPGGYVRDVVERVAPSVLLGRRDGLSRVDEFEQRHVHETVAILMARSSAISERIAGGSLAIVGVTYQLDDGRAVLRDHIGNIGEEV
Description: Inhibition of full length Mycobacterium tuberculosis H37Rv recombinant carbonic anhydrase 2 encoded by RV3588c by stopped flow CO2 hydration assay

SMILES	pKi
Nc1ccc(S(N)(=O)=O)cc1I	4.49
NS(=O)(=O)c1nnc(-c2ccccc2Cl)s1	4.34
Nc1ccc(S(N)(=O)=O)cc1Br	4.50
NS(=O)(=O)c1ccc(CO)cc1	4.42
NCCc1ccc(S(N)(=O)=O)cc1	4.54
Nc1ccc(S(=O)(=O)NCCc2ccc(S(N)(=O)=O)cc2)cc1	5.64
NS(=O)(=O)c1ccc(S(=O)(=O)Nc2cccc3c(Cl)c[nH]c23)cc1	6.14
NCc1ccc(S(N)(=O)=O)cc1 [MAFENIDE]	4.51
Cc1ccc(S(N)(=O)=O)cc1 [P-TOLUENESULFONAMIDE]	4.41
